Experimental data: paper PMC8042727, “Apoptosis-like cell death upon kinetoplastid induction by compounds isolated from the brown algae Dictyota spiralis” (Parasites & Vectors, 2021)
Blank lines part the entries; values can stand above or below the molecule they belong to.

Experiments:
[1] = system: T. cruzi; parameters: method as in PMID 23442789; settings: read-out: IC50 against T. cruzi; cited from earlier work
[2] = system: Trypanosoma cruzi; assay: ATP level (CellTiter-Glo); assay type: cell-based; settings: T. cruzi, IC90, 24 h, relative to negative control
Description: The CellTiter-Glo® luminescent cell viability assay (Promega, WI, USA) was used to quantify the adenosine triphosphate (ATP) concentration. Cells of the kinetoplastid strains (for both L. amazonensis [2 × 10^6 cells/ml] and T. cruzi [5 × 10^5cells/ml]) were incubated for 24 h with the compounds to be tested, at IC90 and 26 °C. After incubation, the cells were centrifuged and resuspended in 100 μl. To this volume, we added 100 μl of the reactive in white 96-well plates. After incubation, the luminescence signal was measured using the Enspire multimode plate reader. The decrease in ATP level was expressed as a percentage relative to the negative control. Miltefosine and benznidazole were tested as the positive control for L. amazonensis and T. cruzi, respectively.

[3] = system: Trypanosoma cruzi; assay: Oxidative stress / ROS accumulation (CellROX Deep Red); assay type: cell-based; settings: T. cruzi, IC90, 24 h
Description: (§1) The reagent used for this assay was a fluorogenic probe to measure cellular oxidative stress upon oxidation by reactive oxygen species (ROS). To perform the test, cells were incubated with the compounds to be tested, at IC90 for 24 h. The cells were centrifuged and resuspended in a volume of 50 μl, following which CellROX™ Deep Red oxidative stress reagent (Thermo-Fisher Scientific) was added to 96-well plates at […]. The plates were then incubated for 30 min at 37 °C. After incubation, the results were analyzed by cell imaging using the Evos cell imaging system. Cells treated with different compounds were compared with untreated control cells and the positive control. Fluorescence intensity was also measured using the Enspire multimode plate reader at excitation/emission wavelengths of 640/665 nm. Accumulation ROS at the cellular level is a good indicator of oxidative stress and is precursor to a chain reaction leading damage at the cellular level to proteins, nucleic acids, lipids, membrane and organelles. These cellular alterations can lead to activation of the cell death process. As such, ROS play an important role in cell signaling and the apoptosis pathway. An intracellular excess of ROS can be detected by the cell-permeable CellROX™ Deep Red reagent, which is a fluorogenic ROS sensor.

[4] = Cytotoxicity on macrophages (AlamarBlue, 24 h); assay type: cell-based; settings: mouse, J774A.1 macrophages, J774A.1, 24 h, read-out: CC50: murine macrophages
Description: Cytotoxicity of the tested molecules was evaluated after 24 h using macrophages of the murine cell line J774.A1 (American Type Culture Collection #TIB-67). The cells were maintained in DMEM medium at 37 °C in a 5% CO2 humidified incubator. The viability of the macrophages was determined with the AlamarBlue assay and the emitted fluorescence was assayed in an Enspire microplate reader (PerkinElmer Inc.) at 570/585 nm. Briefly, 50 µl of macrophages was placed in a 96-well flat bottom plate at a density of 2 × 10^5/ml in RPMI medium supplemented with 10% FBS without phenol. Cells were allowed to adhere for 15 min, and their progress was checked using a Leika inverted microscope (Leika Camera AG, Wetzlar, Germany). At the same time, a serially dilution of the test compounds was made in a deep 96-well plate with the same medium, and then 50 µl of each serially diluted molecule was added to each well of the 96-well flat bottom plate. Finally, 10% of AlamarBlue was added to each well. The plates were incubated at 37 °C in 5% CO2 for 24 h. Dose–response curves were plotted and the 50% cytotoxic concentrations (CC50) were obtained. The analyses were performed in triplicate.

[5] = system: Trypanosoma cruzi epimastigotes (Y strain); assay: In vitro evaluation on T. cruzi epimastigotes (AlamarBlue, 72 h); assay type: cell-based; settings: nonlinear regression of AlamarBlue curve, read-out: IC90 Trypanosoma cruzi: epimastigote
Description: Experiments including in vitro activity assays of isolated compounds 1–3 were performed against the promastigote and amastigote stages of Leishmania amazonensis (MHOM/BR/77/LTB0016) and the epimastigote stage of Trypanosoma cruzi (Y strain). Promastigotes of L. amazonensis were cultured in Schneider’s medium (Sigma-Aldrich, St. Louis, MO, USA). Typanosoma cruzi strain Y was cultured in liver Infusion tryptose (LIT) medium. The three molecules 1-3 were tested against epimastigotes of T. cruzi. Briefly, the molecules were dissolved in DMSO in 96-well plates and a serially diluted concentration was made in 100 μl of LIT medium supplemented with 10% heat-inactivated FBS. In all tests, a maximum of 1% DMSO was used to dissolve the highest dose of the compounds without inducing any effects on the parasites; epimastigotes in the logarithmic growth phase were then counted, adjusted to 5 × 10^5 cells/ml, distributed on the previous 96-well plate and incubated at 27 °C for 72 h. The plate was observed under an inverted microscope after 72 h of incubation and analyzed statistically as described for the leishmanicidal test. Hoechst dye is a blue-fluorescent dye that stains condensed chromatin of apoptotic cells. To detect DNA condensation, the chromatin condensation/dead cell apoptosis kit was used (Invitrogen, Thermo Fisher Scientific, Waltham, MA, USA). Cells were incubated in the presence of the compounds to be tested at IC90. The IC90 values were determined using nonlinear regression of the AlamarBlue® curve. After 24 h of incubation, cells were harvested and resuspended in medium, following which 1 μl of Hoechst 33342 stock solution was added to parasites and incubated for 20 min. Results were analyzed by cell imaging using the Evos FL cell imaging system (Thermo Fisher Scientific). The experiments were repeated using a double-stain apoptosis detection kit (Hoechst 33342/PI; Thermo Fisher Scientific). […] A positive control was also tested: miltefosine (L. amazonensis) and benznidazole (T. cruzi).

[6] = system: Leishmania amazonensis; assay: Oxidative stress / ROS accumulation (CellROX Deep Red); assay type: cell-based; settings: L. amazonensis, IC90, 24 h
Description: as §1

[7] = system: Leishmania amazonensis promastigotes; assay: DNA condensation assay (Hoechst 33342 / PI); assay type: cell-based; settings: L. amazonensis promastigotes, IC90, 24 h
Description: (§2) Hoechst dye is a blue-fluorescent dye that stains condensed chromatin of apoptotic cells. To detect DNA condensation, the chromatin condensation/dead cell apoptosis kit was used (Invitrogen, Thermo Fisher Scientific, Waltham, MA, USA). Cells were incubated in the presence of the compounds to be tested at IC90. The IC90 values were determined using nonlinear regression of the AlamarBlue® curve. After 24 h of incubation, cells were harvested and resuspended in medium, following which 1 μl of Hoechst 33342 stock solution was added to parasites and incubated for 20 min. Results were analyzed by cell imaging using the Evos FL cell imaging system (Thermo Fisher Scientific). The experiments were repeated using a double-stain apoptosis detection kit (Hoechst 33342/PI; Thermo Fisher Scientific). […] A positive control was also tested: miltefosine (L. amazonensis) and benznidazole (T. cruzi).
DNA condensation is an important cellular event, providing evidence of apoptotic cell death. Hoechst dye is a blue-fluorescent dye that stains condensed chromatin. […] Also, using propidium iodine (PI), it is possible to distinguish dead cells, which stain red when PI penetrates the nucleus. The results of staining were evaluated using cell imaging. Different microscopy images are regrouped in Fig. 2 (for L. amazonensis) and Fig. 3 (for T. cruzi). […] A clear reduction in cell number is also evident.

[8] = system: Leishmania amazonensis amastigotes; assay: Anti-amastigotes assay (intra-macrophagic stage, J774A.1); assay type: cell-based; settings: J774.A1; Leishmania amazonensis, intracellular in J774A.1; read-out: IC50: amastigote
Description: The three molecules 1-3 were tested against the intra-macrophagic stage of L. amazonensis as previously described. Briefly, in a 96-well, flat-bottom plate, macrophages of the J774A.1 cell line (American Type Culture Collection #TIB-67) were cultured at a density of 2 × 10^5 cells/ml in RPMI 1640 medium supplemented with 10% heat-inactivated FBS and incubated for 1 h at 37 °C in a 5% CO2 atmosphere to allow almost complete attachment of the cells. The macrophages were then infected with L. amazonensis promastigotes in the stationary phase (7-day-old culture) at a ratio of 1:10 (macrophage:parasite) at a concentration of 2 × 10^6 cells/ml and incubated at 37 °C in 5% CO2 for 24 h. Wells were washed with medium to remove external promastigotes. Thereafter, the infected macrophages were treated with the serially diluted concentrations of the pure compounds for 24 h, following which the medium was removed carefully and replaced by 30 μl of new medium containing 0.05% sodium dodecyl sulfate and the plate shaken for 30 s. Subsequently, 170 μl of Schneider’s medium was added to each well to give a final volume of 200 μl, and 20 μl of AlamarBlue® was added to the plate; the plate was then incubated at 26 °C for 72 h, following which the plates were analyzed using the same protocol as for the promastigotes assay.

[9] = system: Leishmania amazonensis promastigotes; assay: Anti-promastigotes assay (AlamarBlue, 72 h); assay type: cell-based
Description: Experiments including in vitro activity assays of isolated compounds 1–3 were performed against the promastigote and amastigote stages of Leishmania amazonensis (MHOM/BR/77/LTB0016) and the epimastigote stage of Trypanosoma cruzi (Y strain). Promastigotes of L. amazonensis were cultured in Schneider’s medium (Sigma-Aldrich, St. Louis, MO, USA). Typanosoma cruzi strain Y was cultured in liver Infusion tryptose (LIT) medium.
The bioassay was performed using the AlamarBlue® method as previously described. Promastigotes of L. amazonensis were grown at 26 °C in RPMI 1640 modified medium (Gibco BRL Life Technologies Inc., Gaithersburg, MD, USA) and supplemented with 10% heat-inactivated fetal bovine serum (FBS). Cultures in the logarithmic phase were seeded in sterilized 96-well microtiter plates (Corning™, Corning, NY, USA) (10^6 parasites/ml) containing the samples dissolved in 1% DMSO at the suitable concentration to be tested in serial dilutions, and Leishmania medium (RPMI 1640) was used to reach a final volume of 200 μl per well; then 10% of AlamarBlue® was added to the entire plate. After an incubation of 72 h, the plate was checked visually using an inverted microscope, then analyzed using an Enspire multimode plate reader (PerkinElmer, Inc., Waltham, MA, USA) at excitation and emission wavelengths of 570 and 585 nm, respectively. Dose–response curves were plotted, and the concentration at which one half of the maximal inhibitory effect was obtained (IC50) was determined. The analyses were performed in triplicate.
as §2

[10] = system: L. amazonensis; parameters: method as in PMID 22970332; settings: read-out: IC50 (inhibition of infection by L. amazonensis); cited from earlier work

Compound: CC(C)=CC(=O)C/C(C)=C/CC/C(C)=C/CC/C(C)=C/CO [Eleganolone]
IC50 [1]: 58 µM

IC90 [5]: 25.6 µM
Compound: O=C(Cn1ccnc1[N+](=O)[O-])NCc1ccccc1 [Benznidazole, reference compound]
decrease in ATP concentration [2]: > 80%
ROS accumulation (fluorescence vs negative control) [3]: significant increase in fluorescence
CC50 at 24 h [4]: 400 µM

IC50 [8]: 3.11 µM
IC50 ([9]; 72 h, read-out: IC50: promastigote): 6.47 ± 0.58 µM
IC90 ([9]; nonlinear regression of AlamarBlue curve, read-out: IC90 Leishmania amazonensis: promastigote): 9.63 µM
Compound: CCCCCCCCCCCCCCCCOP(=O)([O-])OCC[N+](C)(C)C [Miltefosine, reference compound]
ROS accumulation (fluorescence vs negative control) [6]: more remarkable
chromatin condensation / cell death stage (Hoechst/PI staining) [7]: dead cells
CC50 at 24 h [4]: 72.2 µM

Compound: C[C@H]1/C=C/[C@@]2(C)CC[C@@H](C(C)(C)O)[C@@H]2[C@@H](O)C[C@](C)(O)/C=C/C1 [Dolabelladienetriol]
IC50 [10]: 44 µM
